Data taken from patent publication US20260297065A1, “AROMATIC SUBSTITUENT-CONTAINING (HETERO) ARYL-IMIDAZOLE COMPOUND, AND PREPARATION METHOD THEREFOR AND USE THEREOF” (OPEN SOURCE THERAPEUTICS, priority 2022, published 2026).

What follows are molecules tested against T1, soluble epoxide hydrolase (sEH) (Homo sapiens, UniProt P34913) (assay: in vitro biochemical activity test, sEH enzyme inhibition with EET substrate (LC-MS)). Settings: 90 min pre-incubation at room temperature, 60 min reaction.
T1 sequence (P34913 1-555): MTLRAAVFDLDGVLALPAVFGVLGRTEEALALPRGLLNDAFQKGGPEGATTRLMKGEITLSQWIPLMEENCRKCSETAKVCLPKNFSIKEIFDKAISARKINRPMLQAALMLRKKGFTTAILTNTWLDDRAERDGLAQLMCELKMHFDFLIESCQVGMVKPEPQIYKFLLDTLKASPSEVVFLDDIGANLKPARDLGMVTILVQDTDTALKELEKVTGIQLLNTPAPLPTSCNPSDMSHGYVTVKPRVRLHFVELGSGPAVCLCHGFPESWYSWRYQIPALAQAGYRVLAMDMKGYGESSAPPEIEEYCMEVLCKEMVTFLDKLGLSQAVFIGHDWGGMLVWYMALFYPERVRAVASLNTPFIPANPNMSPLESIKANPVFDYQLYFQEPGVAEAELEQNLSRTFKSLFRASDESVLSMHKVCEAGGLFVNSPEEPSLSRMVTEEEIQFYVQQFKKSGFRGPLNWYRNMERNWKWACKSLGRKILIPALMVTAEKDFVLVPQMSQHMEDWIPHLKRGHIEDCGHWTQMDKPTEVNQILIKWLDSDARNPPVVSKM
Description: This example relates to the relationship between the structure and activity of (hetero)aryl imidazole compounds containing an aromatic substituent. Specifically, the biochemical activity of the (hetero)aryl imidazole compounds containing an aromatic substituent described in Example 1 as sEH enzyme inhibitors was evaluated by in vitro activity test experiments.
The experimental procedures for evaluating in vitro biochemical activity were described below.
The substrate used in the evaluation experiment was epoxyeicosatrienoic acid (EET). The solutions used in the evaluation experiments were Bis/Tris HCl 25 mM pH 7.0, Bis/Tris HCl 25 mM pH 7.0 containing 0.1 mg/mL BSA was used as buffer A, and Bis/Tris HCl 25 mM pH 7.0 containing 36.3 mM ZnSO4 was used as buffer B.
The specific steps of the evaluation experiment were as follows. 79 μL of buffer A was added to each well in a black 96-well plate and then 1 μL solution of the aromatic substituent-containing (hetero)aryl imidazole compound was added. Then, 10 μL sEH (1 μM) buffer A solution was added to the wells. After pre-incubation at room temperature for 90 min, 10 μL EET (10 μM) buffer A solution was added to trigger the reaction. After the mixture was allowed to react […] for 60 min, 15 μL buffer B and 180 μL acetonitrile were added to quench the reaction, followed by high-speed centrifugation and filtration for later use.
LC-MS was used to detect the concentration of EET in the samples. The final IC50 was calculated based on three independent experiments using Graphpad Prism software.

SMILES	IC50 [nM]
CN(C)S(=O)(=O)c1ccc(-c2nc3cc(-c4ccncc4Cl)c(F)cc3[nH]2)cc1 [Compound 1, 4-(6-(3-chloropyridin-4-yl)-5-fluoro-1H-benzo[d]imidazol-2-yl)-N,N-dimethylbenzene-sulfonamide]	0.11
COc1ccc(-c2nc3cc(-c4ccncc4Cl)c(F)cc3[nH]2)cc1F [Compound 2, 6-(3-chloropyridin-4-yl)-5-fluoro-2-(3-fluoro-4-meth-oxyphenyl)-1H-benzo[d] imidazole]	11
Cc1ccc(-c2cc3nc(-c4ccc(C(=O)N5CCC[C@@H](C(N)=O)C5)cc4)[nH]c3cc2F)c(Cl)n1 [Compound 3, (R)-1-(4-(6-(2-chloro-6-meth-ylpyridin-3-yl)-5-fluoro-1H-benzo[d]imidazol-2-yl)benzo-yl)piperidine-3-carboxamide]	7.6
Cc1ncc(-c2cc3nc(-c4ccc(S(C)(=O)=O)cc4)[nH]c3cc2Cl)c(Cl)n1 [Compound 4, 5-chloro-6-(4-chloro-2-meth-ylpyrimid-5-yl)-2-(4-(methyl-sulfonyl)phenyl)-1H-benzo[d] imidazole]	0.99
Cc1ncc(-c2cc3nc(-c4ccc(C(F)(F)F)cc4)[nH]c3c(F)c2F)c(C)n1 [Compound 5]	0.074
CNc1nc(C)ncc1-c1cc2nc(-c3ccc(C(F)(F)F)cc3)[nH]c2cc1F [Compound 7, 5-(5-fluoro-2-(4-(trifluoro-methyl)phenyl)-1H-benzo[d]imidazol-6-yl)-N,2-dimethyl-pyrimidine-4-amine]	0.11
Cc1nc(N(C)C)ncc1-c1cc2nc(-c3ccc(C(F)(F)F)cc3)[nH]c2cc1F [Compound 9, 5-(5-fluoro-2-(4-(trifluoro-methyl)phenyl)-1H-benzo[d]imidazol-6-yl)-N,N,4-trimeth-ylpyrimidine-2-amine]	0.11
Cc1cnccc1-c1cc2nc(-c3ccc(C(F)F)cc3)[nH]c2cc1F [Compound 11, 2-(4-(difluoromethyl)phenyl)-5-fluoro-6-(3-methylpyridin-4-yl)-1H-benzo[d]imidazole]	0.14
Cc1ccc(-c2cc3nc(-c4ccc(C(F)(F)F)cc4)[nH]c3cc2F)c(Cl)n1 [Compound 12, 6-(2-chloro-6-methylpyridin-3-yl)-5-fluoro-2-(4-(trifluoro-methyl)phenyl)-1H-benzo[d] imidazole]	0.058
Cc1cc(-c2cc3nc(-c4ccc(C(F)(F)F)cc4)[nH]c3cc2F)n(C)n1 [Compound 13, 6-(1,3-dimethyl-1H-pyrazol-5-yl)-5-fluoro-2-(4-(trifluoro-methyl)phenyl)-1H-benzo[d] imidazole]	0.4
Cc1ncc(-c2ccc3[nH]c(-c4ccc(C(F)(F)F)cc4)nc3c2F)cn1 [Compound 14, 7-fluoro-6-(2-methylpyrimid-5-yl)-2-(4-(trifluoromethyl)-phenyl)-1H-benzo[d]imidazole]	0.94
Cc1ccc(-c2cc3nc(-c4ccc(C(F)(F)F)cc4)[nH]c3cc2F)cn1 [Compound 15, 5-fluoro-6-(6-methylpyridin-3-yl)-2-(4-(trifluoromethyl)-phenyl)-1H-benzo[d]imidazole]	0.62
Fc1cc2[nH]c(-c3ccc(C(F)(F)F)cc3)nc2cc1-c1cnc(N2CCOCC2)nc1 [Compound 16, 4-(5-(5-fluoro-2-(4-(trifluoro-methyl)phenyl)-1H-benzo[d]imidazol-6-yl)pyrimidine-2-yl)morpholine]	0.14
CN1CCN(c2ncc(-c3cc4nc(-c5ccc(C(F)(F)F)cc5)[nH]c4cc3F)cn2)CC1 [Compound 17, 5-fluoro-6-(2-(4-methylpiper-azine-1-yl)pyrimid-5-yl)-2-(4-(trifluoromethyl)phenyl)-1H-benzo[d]imidazole]	4.8
CC(C)n1nccc1-c1cc2nc(-c3ccc(S(C)(=O)=O)cc3)[nH]c2cc1F [Compound 19, 5-fluoro-6-(1-isopropyl-1H-pyrazol-5-yl)-2-(4-(methyl-sulfonyl)phenyl)-1H-benzo[d] imidazole]	0.98
CS(=O)(=O)c1ccc(-c2nc3cc(-c4cnc(N5CCOCC5)nc4)c(F)cc3[nH]2)cc1 [Compound 20, 4-(5-(5-fluoro-2-(4-(methyl-sulfonyl)phenyl)-1H-benzo[d]imidazol-6-yl)pyrimidine-2-yl)morpholine]	2.21
CC(C)n1nccc1-c1cc2nc(-c3ccc(S(=O)(=O)N(C)C)cc3)[nH]c2cc1F [Compound 21, 4-(5-fluoro-6-(1-isopropyl-1H-pyrazol-5-yl)-1H-benzo[d]imidazol-2-yl)-N,N-dimethyl-benzenesulfonamide]	0.051
Cc1nc(N)ncc1-c1cc2nc(-c3ccc(S(=O)(=O)N(C)C)cc3)[nH]c2cc1F [Compound 22, 4-(6-(2-amino-4-methylpyr-imid-5-yl)-5-fluoro-1H-benzo [d]imidazol-2-yl)-N,N-dimeth-yl-benzenesulfonamide]	0.1
CC(=O)n1nc(C)c(-c2cc3nc(-c4ccc(C(F)(F)F)cc4)[nH]c3cc2F)c1C [Compound 23, 1-(4-(6-fluoro-2-(4-(trifluoro-methyl)phenyl)-1H-benzo[d]imidazol-5-yl)-3,5-dimethyl-1H-pyrazol-1-yl)ethan-1-one]	0.29
Cc1nn(S(C)(=O)=O)c(C)c1-c1cc2nc(-c3ccc(C(F)(F)F)cc3)[nH]c2cc1F [Compound 24, 6-(3,5-dimethyl-1-(methyl-sulfonyl)-1H-pyrazo1-4-yl)-5-fluoro-2-(4-(trifluoromethyl)-phenyl)-1H-benzo[d]imidazole]	0.2
CC(C)n1nccc1-c1cc2nc(-c3ccc(S(=O)(=O)N(C)C)cc3)[nH]c2c(F)c1F [Compound 25, 4-(4,5-difluoro-6-(1-isopropyl-1H-pyrazol-5-yl)-1H-benzo[d]imidazol-2-yl)-N,N-dimethyl-benzenesulfonamide]	0.045
Cc1nc(N2CCOCC2)ncc1-c1cc2nc(-c3ccc(S(=O)(=O)N(C)C)cc3)[nH]c2cc1F [Compound 26, 4-(5-fluoro-6-(4-methyl-2-morpholinopyrimid-5-yl)-1H-benzo[d]imidazol-2-yl)-N,N-dimethylbenzenesulfonamide]	0.081
Cc1nc(N)ncc1-c1cc2nc(-c3ccc(S(=O)(=O)N(C)C)cc3)[nH]c2c(F)c1F [Compound 27, 4-(6-(2-amino-4-methylpyr-imid-5-yl)-4,5-difluoro-1H-benzo[d]imidazol-2-yl)-N,N-dimethylbenzenesulfonamide]	0.056
Cc1ncc(-c2cc3nc(-c4ccc(S(=O)(=O)N(C)C)cc4)[nH]c3c(F)c2F)c(Cl)n1 [Compound 28, 4-(6-(4-chloro-2-methylpyr-imid-5-yl)-4,5-difluoro-1H-benzo[d]imidazol-2-yl)-N,N-dimethylbenzenesulfonamide]	0.046
Cc1ncc(-c2cc3nc(-c4ccc(S(=O)(=O)N(C)C)cc4)[nH]c3cc2F)c(C)n1 [Compound 29, 4-(6-(2,4-dimethylpyrimid-5-yl)-5-fluoro-1H-benzo[d]imidazol-2-yl)-N,N-dimethyl-benzenesulfonamide]	0.083
Cc1ncc(-c2cc3nc(-c4ccc(S(=O)(=O)N(C)C)cc4)[nH]c3cc2Cl)c(Cl)n1 [Compound 30, 4-(5-chloro-6-(4-chloro-2-methylpyrimid-5-yl)-1H-benzo [d]imidazol-2-yl)-N,N-dimeth-ylbenzenesulfonamide]	0.1
Cc1nc(N)ncc1-c1cc2nc(-c3ccc(S(=O)(=O)N(C)C)cc3)[nH]c2c(F)c1Cl [Compound 31, 4-(6-(2-amino-4-methylpyr-imid-5-yl)-5-chloro-4-fluoro-1H-benzo[d]imidazol-2-yl)-N,N-dimethylbenzenesulfon-amide]	0.085
COc1nc(C)ncc1-c1cc2nc(-c3ccc(S(=O)(=O)N(C)C)cc3)[nH]c2cc1F [Compound 32, 4-(5-fluoro-6-(4-methoxy-2-methylpyrimid-5-yl)-1H-benzo[d]imidazol-2-yl)-N,N-dimethylbenzenesulfonamide]	0.13
CN(C)S(=O)(=O)c1ccc(-c2nc3cc(-c4cncnc4C(F)(F)F)c(F)cc3[nH]2)cc1 [Compound 33, 4-(5-fluoro-6-(4-(trifluoro-methyl)pyrimid-5-yl)-1H-benzo [d]imidazol-2-yl)-N,N-dimeth-ylbenzenesulfonamide]	0.15
CC(C)c1nc(N)ncc1-c1cc2nc(-c3ccc(S(=O)(=O)N(C)C)cc3)[nH]c2cc1F [Compound 34, 4-(6-(2-amino-4-isopropyl-pyrimid-5-yl)-5-fluoro-1H-benzo[d]imidazol-2-yl)-N,N-dimethylbenzenesulfonamide]	0.058
